The text below walks through data of patent publication US8003595B2, “Amino acid sequences facilitating penetration of a substance of interest into cells and/or cell nuclei” (Cellectis, priority 2000, dated 2011).

Read-outs that look alike come from different tables or passages of the source. Where no end group is shown, it is not given here. [ ]: non-standard residue; d: D form.

In assay [1] the test system is HeLa. The assay can be described thus: Internalization of covalent peptide-peroxidase conjugates. Type of assay: cell-based, human. As to conditions: 2 hours. As to the method:
(§1) To evaluate more directly the penetration of the peptides, avoiding the avidin-peroxidase bias, some of the peptides in sequences SEQ ID NO: 25 to 48 were conjugated covalently with cysteine in the C-terminal position of the peptide to peroxidase. The peptides were coupled with peroxidase in the following way:
(§2) One mg of peroxidase activated with maleimide (Sigma) in 100 μl of sodium phosphate buffer, NaCl 0.15 M, EDTA 5 mM, had 1 mg of peptide added to it. After 2 hours at laboratory temperature, β-mercaptoethanol is added to a final concentration of 1.5 mM for 15 minutes. The uncoupled peptide is eliminated by centrifugation on ultrafiltration membranes (cut-off threshold=30,000 Daltons, Sartorius), followed by three washings in sodium phosphate buffer 0.1 M, pH 7.4 containing 0.15 M NaCl.
(§3) It appears that the higher the concentration of peptide-peroxidase conjugate in the culture medium, the more the quantity internalized increases. To compare the penetration of the conjugates by cell type, the cells from different lines were incubated with 0.2 μg/ml of peptide-peroxidase conjugate for 2 hours, and the quantity of peroxidase dosed in the lysates. Table 9 and Table 9B below give the results expressed in pg/10^3 cells. The quantity of each peptide internalized in the different lines generally varies only from single to double.

In assay [2] the test system is 3T3. The assay is described as above. Type of assay: cell-based, mouse. As to conditions: 2 hours. As to the method:
as §1, §2, §3

Assay [3] deals with H1299 cells. The description is as above. Type of assay: cell-based, human. As to conditions: H1299, 0.2 μg/ml conjugate, 2 hours. As for the experimental part:
as §1, §2
The H1299 cells are incubated for 2 hours with the conjugates at increasing concentrations of peptide-peroxidase in the culture medium, then washed with PBS. The cells are lysed and the quantity of peptide internalized is evaluated by the dosage of peroxidase in the lysate of the cells with reference to a curve established with peptide-peroxidase.
The quantity of peptide internalized (pg/10^3 cells), depending on the concentrations of conjugates in the culture medium, is shown in Table 8 below.
as §3

The test system of assay [4] is cells. The assay can be described thus: Penetration of biotinylated peptides inside cells (microscopy, S-PO coloration). Type of assay: cell-based. As to conditions: biotinylated peptides 50 to 6 μg/ml, 1-18 hours, revealed with S-PO. As to the method:
The cells are cultivated in the presence of the different peptides carrying, on the N-terminal side, biotin in decreasing concentrations (50 to 6 μg/ml) in the culture medium for variable times (1-18 hours).
At the end of the culture, the cells are washed three times with PBS (0.15 M NaCl buffered with 0.01 M potassium phosphate buffer pH 7.4) then fixed 15 minutes in ethanol at −20° C. The penetration of the peptide is evaluated after incubation for 30 minutes with streptavidin conjugated with peroxidase (abbreviated S-PO for streptavidin-peroxidase). Then, the S-PO is eliminated, and the cells are washed. […] With the other peptides, positive colorations, but of variable intensity, were noted.

In assay [5] the test system is H1299 cells. The assay can be described thus: Internalization of biotinylated peptide/S-PO complexes. Format: cell-based, human. As for the experimental part:
A biotinylated/S-PO peptide or biotinylated/A-PO complex (A-PO for avidin-peroxidase) is prepared extemporaneously in two ways:
1) either in a peptide: S-PO or A-PO molar ratio of 4:1 (for example, 1.4 μg of peptide with a molecular weight of 3500 to 10 μg of S-PO; the weight of S-PO used varies depending on the peptides since their molecular weights are different).
2) or in a peptide: S-PO or A-PO molar ratio of 25:1 (for example 1.7 μg of peptide with a molecular weight of 3500 to 1 μg of S-PO).
The complexes are prepared by incubating the biotinylated peptide with S-PO or A-PO in PBS in a volume of 5 to 10 μl for 15 minutes at laboratory temperature. They are then diluted in 1 ml of complete culture medium, filtered on a 0.2 micron membrane and incubated with the cells for 4 hours. The cells are then washed three times with PBS.
To study the penetration of the complexes under a microscope, the cells are fixed as before for 15 minutes in ethanol at −20° C., they are washed with PBS, and the activity of the internalized peroxidase is shown by diaminobenzidine in the presence of H2O2. To measure the quantity of peptide/S-PO or A-PO complexes internalized, the cells are trypsinized, transferred into microtubes and counted. They are washed twice by centrifugation, then the residue is suspended in 200 μl of lysis buffer (Tris buffer, 0.1 M, pH8, 0.5% Nonidet). After 15 minutes, the peroxidase contained in the lysis buffer is dosed onto 96-well plates with ortho-dianisidine and H2O2 by comparison with a standard curve for S-PO. The reading is taken at 450 nm. The quantity contained in the different samples is expressed in picograms (pg) per 10^4 cells.
Table 7 below reports the results of evaluating the influence of SEQ ID NO: 1 on the penetration of peptides coupled to SEQ ID NO: 1 into H1299 cells, where
Concentration a: 25 peptides to one molecule of S-PO (1 μg),
Concentration b: 4 peptides to one molecule of S-PO (10 μg).

Assay [6] is described as follows: ELISA fixation of biotinylated peptides on sensitized plates. Type of assay: binding. As to conditions: read-out: avidity (Kd), quantity of peptides necessary to obtain 50% fixation, Chondroitin C; Table 5. (In general: An ELISA detects its analyte on a solid surface through an enzyme-linked reagent.)
Assay in assay [7]: as above
Format: binding. As to conditions: read-out: avidity (Kd), quantity of peptides necessary to obtain 50% fixation, Chondroitin B; Table 5.

Assay in assay [8]: as above
Type of assay: binding. As to conditions: read-out: avidity (Kd), quantity of peptides necessary to obtain 50% fixation, Chondroitin A; Table 5.

The mark [9] stands for this setting: peptide: S-PO complexes of 4:1, peptide concentration of 1 μg.
[10] abbreviates: Conc. a: 25 peptides to one molecule of S-PO (1 μg).
[11] abbreviates: Conc. b: 4 peptides to one molecule of S-PO (10 μg).

As for “SEQ ID NO: 27: SEQ ID NO: 26 in which the amino acids are in configuration D ([dS][dE][dR][dK][dK][dR][dR][dR][dE][dS][dR][dK][dK][dR][dR][dR][dE][dS]; listed as Homo sapiens)”, the Internalization of Peptide-peroxidase in assay [1] (Table 9B, 0.2 μg/ml conjugate) stood at 4.1 pg/10^3 cells; in assay [2] (Table 9B, 0.2 μg/ml conjugate), 63.7 pg/10^3 cells; in assay [3] (Table 9B) it was 59.1 pg/10^3 cells.
For “SEQ ID NO: 18: Peptide reacting with heparin derived from the amino acid sequence of agrine (KSRK; listed as Homo sapiens)”, in assay [4], the intracellular cytochemical coloration entry is “do not give any positive intracellular cytochemical coloration”. Also, the S-PO internalized in assay [5] (setting [9]) is 3 pg/10^4 cells.
In the case of “SEQ ID NO: 32: SEQ ID NO: 30 in which the amino acids are in configuration D (G[dK][dR][dK][dK][dK]G[dK][dL]G[dK][dK][dR][dD]; listed as Homo sapiens)”, the Internalization of Peptide-peroxidase in assay [1] (Table 9B, 0.2 μg/ml conjugate) is 7.7 pg/10^3 cells; in assay [2] (Table 9B, 0.2 μg/ml conjugate), 50 pg/10^3 cells; in assay [3] (Table 9B), 56.7 pg/10^3 cells.
With “SEQ ID NO: 8: Peptide corresponding to the hypervariable CD3 region of human anti-DNA monoclonal antibody RTT79 (VRRSGRVVVPAAPRNRD; listed as Homo sapiens)”, in assay [4], the intracellular cytochemical coloration entry was “Faint coloration”. In addition, the S-PO internalized in assay [5] (setting [10]) was determined as 50 pg/10^4 cells; in assay [5] (setting [11]) it was 1310 pg/10^4 cells.
The matching figures for “SEQ ID NO: 4: Peptide corresponding to the hypervariable area CD3 of the anti-DNA monoclonal murine antibody F4.1 (RQKYNKRAMDY; Mus musculus x Rattus norvegicus)”: “do not give any positive intracellular cytochemical coloration”, 2 pg/10^4 cells and 280 pg/10^4 cells.
Consider “SEQ ID NO: 6: Peptide containing part of CDR2 and CDR3 regions of monoclonal murine antibody F4.1 (TYYSDTVKGRFTRQKYNKRA; Mus musculus x Rattus norvegicus)”, for which the intracellular cytochemical coloration entry in assay [4] is on record as “Faint coloration”. For the same substance, the results for the S-PO internalized in assay [5] (setting [10]) and in assay [5] (setting [11]) were 1 pg/10^4 cells and 130 pg/10^4 cells, respectively.
Regarding QGKSKREKKDRVF [SEQ ID NO: 37], the Kd in assay [6] is 93 nM; in assay [7], 173 nM; in assay [8], 176 nM. In addition, the “Internalization of Peptide-peroxidase” value was 2.5 pg/10^3 cells in assay [1] (Table 9, 0.2 μg/ml conjugate); 5.7 pg/10^3 cells in assay [2] (Table 9, 0.2 μg/ml conjugate); 4.3 pg/10^3 cells in assay [3] (Table 9).
With “SEQ ID NO: 11: SEQ ID NO: 1 and CDR3 of the human anti-DNA monoclonal antibody RT72 (VKRGLKLGYYDFWSGPGKN; listed as Homo sapiens)”, in assay [4], the intracellular cytochemical coloration entry is “do not give any positive intracellular cytochemical coloration”.
Regarding “SEQ ID NO: 31: homolog of SEQ ID NO: 30 with amino acid sequence in the reverse position (b233 says SEQ ID NO: 12) (PDRKKGLKGKKKRKKG; (1)..(16) The amino acids are in front-back position; listed as Homo sapiens)”, the Internalization of Peptide-peroxidase in assay [1] (Table 9B, 0.2 μg/ml conjugate) is recorded as 8.7 pg/10^3 cells; in assay [2] (Table 9B, 0.2 μg/ml conjugate), 75.9 pg/10^3 cells; in assay [3] (Table 9B), 70.6 pg/10^3 cells.
Take “SEQ ID NO: 9: Peptide containing SEQ ID NO: 1 and SEQ ID NO: 8 (VKRGLKLVRRSGRVVVPAAPRNRD; listed as Homo sapiens)”: the intracellular cytochemical coloration entry in assay [4] is on record as “intense coloration”. Moreover, the S-PO internalized is on record as 340 pg/10^4 cells in assay [5] (setting [10]) and 8280 pg/10^4 cells in assay [5] (setting [11]).
As for “SEQ ID NO: 12: Peptide containing the NLS sequence of cells 3T3 and SEQ ID NO: 6 (NVKKPKLTYYSDTVKGRFTRQKYNKRA; Mus musculus x Rattus norvegicus)”, the intracellular cytochemical coloration result in assay [4] was “do not give any positive intracellular cytochemical coloration”.
Turning to “SEQ ID NO: 19: Dimer of SEQ ID NO: 18 (KSRKKSRK; not fully specified; listed as Homo sapiens)”, the intracellular cytochemical coloration result in assay [4] is “Faint coloration”. The substance also yielded a S-PO internalized in assay [5] (setting [9]) of 167 pg/10^4 cells.
In the case of “VKRGLKL (listed as Homo sapiens) [SEQ ID NO: 1, Peptide reacting with heparin from human lipoprotein B]”, in assay [4], the intracellular cytochemical coloration result was “do not give any positive intracellular cytochemical coloration”. In assay [5] (setting [9]), this substance displayed a S-PO internalized of 3 pg/10^4 cells.
AKTGKRKRSG [SEQ ID NO: 36]: the Kd in assay [6] is 205 nM; in assay [7], 301 nM; in assay [8], 287 nM. Further, the “Internalization of Peptide-peroxidase” value in assay [1] (Table 9, 0.2 μg/ml conjugate) is 4.4 pg/10^3 cells; in assay [2] (Table 9, 0.2 μg/ml conjugate), 20.3 pg/10^3 cells; in assay [3] (Table 9), 10.6 pg/10^3 cells.
As to “SEQ ID NO: 5: Peptide containing SEQ ID NO: 1 and SEQ ID NO: 4 (VKRGLKLRQKYNKRAMDY; Homo sapiens - Mus musculus - Rattus norvegicus)”, the intracellular cytochemical coloration result in assay [4] is reported as “intense coloration”. For the same substance, the figures for the S-PO internalized in assay [5] (setting [10]) and in assay [5] (setting [11]) were 100 pg/10^4 cells and 6250 pg/10^4 cells, respectively.
Take “SEQ ID NO: 17: Peptide reacting with heparin derived from human lipoprotein E (LRKRLLRD; listed as Homo sapiens)”: the intracellular cytochemical coloration entry in assay [4] is on record as “do not give any positive intracellular cytochemical coloration”. For the same substance, the S-PO internalized in assay [5] (setting [9]) was determined as 3 pg/10^4 cells.
For “SEQ ID NO: 7: Peptide containing SEQ ID NO: 1 and SEQ ID NO: 6 (VKRGLKLTYYSDTVKGRFTRQYNKRA; Homo sapien - Mus musculus - Rattus norvegicus)”, the intracellular cytochemical coloration entry in assay [4] is recorded as “intense coloration”. Besides, the S-PO internalized in assay [5] (setting [10]) worked out at 240 pg/10^4 cells; in assay [5] (setting [11]), 220 pg/10^4 cells.
